Source: patent publication US20220380378A1 (ESSA Pharma, Inc., priority 2021, published 2022)

Legend:
[1] = biological target: T1, androgen receptor (AR) (Homo sapiens, UniProt P10275, T878A); experiment: Androgen-induced PSA (6.1 kb)-luciferase reporter assay in LNCaP cells (R1881 1 nM); assay type: cell-based; set-up: endogenous in cells; host or cells: LNCaP; conditions: 24 h, read-out: PSA-Luc IC50 Range
T1 sequence (P10275 1-920 T878A): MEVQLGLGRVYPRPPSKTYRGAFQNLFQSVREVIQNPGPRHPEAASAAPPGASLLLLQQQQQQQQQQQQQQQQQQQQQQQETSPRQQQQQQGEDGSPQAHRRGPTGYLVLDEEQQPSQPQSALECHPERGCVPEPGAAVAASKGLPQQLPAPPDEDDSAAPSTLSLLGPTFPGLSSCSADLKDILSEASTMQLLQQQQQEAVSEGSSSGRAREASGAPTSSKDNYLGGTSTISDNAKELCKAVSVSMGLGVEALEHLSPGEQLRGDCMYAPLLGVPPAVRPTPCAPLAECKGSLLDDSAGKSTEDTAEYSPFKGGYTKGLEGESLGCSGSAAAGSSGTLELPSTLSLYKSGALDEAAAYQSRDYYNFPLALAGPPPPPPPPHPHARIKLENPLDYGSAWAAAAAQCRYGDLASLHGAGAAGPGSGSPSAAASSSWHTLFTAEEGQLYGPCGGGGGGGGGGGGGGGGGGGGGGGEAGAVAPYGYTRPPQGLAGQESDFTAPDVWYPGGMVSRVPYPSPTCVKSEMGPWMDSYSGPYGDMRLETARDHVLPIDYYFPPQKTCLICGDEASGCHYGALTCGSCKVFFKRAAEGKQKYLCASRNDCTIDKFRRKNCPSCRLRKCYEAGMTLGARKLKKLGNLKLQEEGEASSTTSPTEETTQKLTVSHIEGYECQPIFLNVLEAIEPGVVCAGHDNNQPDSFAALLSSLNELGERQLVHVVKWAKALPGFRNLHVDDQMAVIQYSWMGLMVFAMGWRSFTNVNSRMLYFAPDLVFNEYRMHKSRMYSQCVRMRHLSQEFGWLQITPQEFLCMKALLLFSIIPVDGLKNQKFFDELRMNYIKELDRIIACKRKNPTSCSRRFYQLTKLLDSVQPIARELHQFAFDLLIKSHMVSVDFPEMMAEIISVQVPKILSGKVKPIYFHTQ
Procedure, shortened: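 Compound or vehicle was added 1 h before 1 nM R1881 to LNCaP cells carrying a transiently transfected (24 h) PSA (6.1 kb)-luciferase reporter. After 24 h androgen exposure, lysate luminescence was normalized to protein and expressed versus vehicle plus R1881 for IC50.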

[2] = Microsomal stability assay, liver microsome half-life (human); assay type: in vitro ADME; conditions: pH 7.4; human liver microsomes 0.5 mg/mL, 1 μM compound, 37° C.; read-out: Liver microsome T1/2 Human
Excerpt: (§1) Microsomal Stability Assay: Microsomal stability assay is a widely used in vitro model to characterize the metabolic conversion by phase I enzymes, such as cytochrome P450 (CYP) enzymes. Since metabolism is known to be highly variable in different species, microsomal stability assay is commonly run in multiple species. Metabolic stability of testing compound can be evaluated using human, rat, mouse, or other animal liver or intestine microsomes to predict intrinsic clearance.
(§2) The assay was carried out in 96-well microtiter plates at 37° C. Reaction mixtures (25 μL) contained a final concentration of 1 μM test compound, 0.5 mg/mL liver microsomes protein, and 1 mM NADPH and/or 1 mM UDPGA (with alamethicin) in 100 mM potassium phosphate, pH 7.4 buffer with 3 mM MgCl2. The incubation was done with N=1, but duplicate incubation at each time point can be prepared if necessary. At each of the time points (for example, 0, 15, 30, and 60 minutes), 150 μL of quench solution (100% acetonitrile with 0.1% formic acid) with internal standard was transferred to each well. Besides the zero minute controls, mixtures containing the same components except the NADPH can also be prepared as the negative control. Verapamil was included as a positive control to verify assay performance. Plates were sealed, vortexed, and centrifuged at 4° C. for 15 minutes at 4000 rpm. The supernatant is transferred to fresh plates for LC/MS/MS analysis.
(§3) Summarized conditions: [Compound]=1 μM, [LM]=0.5 mg/mL, [NADPH]=1 mM and/or [UDPGA]=1 mM, Buffer=100 mM Potassium Phosphate, pH 7.4 with 3 mM MgCl2, Time=0, 15, 30, and 60 min, and Temperature=37° C.
(§4) All samples were analyzed on LC/MS/MS using an AB Sciex API 4000 instrument, coupled to a Shimadzu LC-20AD LC Pump system. Analytical samples were separated using a Waters Atlantis T3 dC18 reverse phase HPLC column (20 mm×2.1 mm) at a flow rate of 0.5 mL/min. The mobile phase consisted of 0.1% formic acid in water (solvent A) and 0.1% formic acid in 100% acetonitrile (solvent B).
(§5) The extent of metabolism is calculated as the disappearance of the test compound, compared to the 0-min time incubation. Initial rates are calculated for the compound concentration and used to determine half-life (t½). […]

[3] = Microsomal stability assay, liver microsome half-life (mouse); assay type: in vitro ADME; conditions: pH 7.4; mouse liver microsomes 0.5 mg/mL, 1 μM compound, 37° C.; read-out: Liver microsome T1/2 Mouse
Excerpt: as §1, §2, §3, §4, §5

## CS(=O)(=O)Nc1nccc(OCC23CC(C(=O)c4ccc(OCCCl)cc4)(C2)C3)n1 [Compound A7]
[1]
  IC50: > 2000 nM
[2]
  half-life at 1 μM: 1.4 h

## CS(=O)(=O)Nc1nccc(COc2ccc3c(c2)CCCC3c2cc(Cl)c(OCCCl)c(C#N)c2)n1 (stereo not shown) [Compound A33, N-(4-(((5-(3-chloro-4-(2-chloroethoxy)-5-cyanophenyl)-5,6,7,8-tetrahydronaphthalen-2-yl)oxy)methyl)pyrimidin-2-yl)methanesulfonamide]
[1]
  IC50: 500 to 2000 nM
[3]
  half-life at 1 μM: > 2 h
[2]
  half-life at 1 μM: > 2 h

## CC(C)(c1ccc(OCc2ccnc(NS(C)(=O)=O)n2)cc1)c1cc(Cl)c2c(c1)OCCO2 [Compound A38]
[1]
  IC50: > 2000 nM
[2]
  half-life at 1 μM: > 2 h

## CS(=O)(=O)Nc1nccc(OC2CCN(C(=O)c3cc(Cl)c(OCCCl)c(C#N)c3)CC2)n1 [Compound A6, N-(4-((1-(3-chloro-4-(2-chloroethoxy)-5-cyanobenzoyl)piperidin-4-yl)oxy)pyrimidin-2-yl)methanesulfonamide]
[1]
  IC50: > 2000 nM
[2]
  half-life at 1 μM: > 2 h

## CC(C)(c1ccc(OC[C@H](O)CNS(C)(=O)=O)cc1)c1cc(Cl)c(OC[C@H](O)CCl)c(Cl)c1 [X, reference compound]
[2]
  half-life at 1 μM: > 2 h

## CS(=O)(=O)Nc1nccc(COCCc2cc(Cl)c(OCCCl)c(C#N)c2)n1 [Compound A5]
[1]
  IC50: > 2000 nM
[2]
  half-life at 1 μM: 0.93 h

## CS(=O)(=O)Nc1nccc(COc2ccc3c(ccn3-c3cc(Cl)c(OC4CCC4)c(C#N)c3)c2)n1 [Compound A189]
[1]
  IC50: 500 to 2000 nM

## CC(C)(c1ccc(OCc2ccnc(NS(C)(=O)=O)n2)cc1)c1cc(Cl)c(-c2cccc(Cl)c2)c(C#N)c1 [Compound A1]
[1]
  IC50: > 2000 nM

## CS(=O)(=O)Nc1nccc(COc2nnc(-c3cc(Cl)c(OCCCl)c(C#N)c3)o2)n1 [Compound A37, N-(4-(((5-(3-chloro-4-(2-chloroethoxy)-5-cyanophenyl)-1,3,4-oxadiazol-2-yl)oxy)methyl)pyrimidin-2-yl)methanesulfonamide]
[1]
  IC50: 500 to 2000 nM
[2]
  half-life at 1 μM: > 2 h

## CS(=O)(=O)NC1CCCN(CCc2ccc3c(ccn3-c3cc(Cl)c(OCCCl)c(C#N)c3)c2)C1 (stereo not shown) [Compound A245]
[1]
  IC50: > 2000 nM

## CC(C)(c1ccc(OCc2ccnc(NS(C)(=O)=O)n2)c(Cl)c1)c1cc(Cl)c(OCCCl)c(C#N)c1 [Compound A102]
[1]
  IC50: 500 to 2000 nM

## CC1(C)CN(c2c(F)cc(C(C)(C)c3ccc(OCc4ccnc(NS(C)(=O)=O)n4)cc3)cc2C#N)C1 [Compound A260]
[1]
  IC50: 500 to 2000 nM

## CS(=O)(=O)Nc1nccc(OCC23CC(C(=O)c4cc(Cl)c(OCCCl)c(C#N)c4)(C2)C3)n1 [Compound A8]
[1]
  IC50: > 2000 nM
[2]
  half-life at 1 μM: 0.161 h

## CS(=O)(=O)N1CCC2(CCC2Oc2ccc3c(ccn3-c3cc(Cl)c(OCCCl)c(C#N)c3)c2)CC1 (stereo not shown) [Compound A222]
[1]
  IC50: 500 to 2000 nM

## CS(=O)(=O)Nc1nccc(COc2ccc3c(ccn3-c3cc(Cl)c(OCC4COC4)c(C#N)c3)c2)n1 [Compound A73]
[1]
  IC50: > 2000 nM

## CC(C)(c1ccc(OCc2cccc(S(C)(=O)=O)c2)cc1)c1cc(Cl)c(OCCCl)c(C#N)c1 [Compound A47]
[1]
  IC50: 500 to 2000 nM

## CS(=O)(=O)Nc1nccc(COc2ccc3c(-c4cc(Cl)c(OCCCl)c(C#N)c4)csc3c2)n1 [Compound A61]
[1]
  IC50: < 500 nM

## CC(C)(c1ccc(OCc2cncnc2N)cc1)c1cc(Cl)c(OCCCl)c(C#N)c1 [Compound A94]
[1]
  IC50: 500 to 2000 nM

## Cn1cc(-c2cc(Cl)c(OCCCl)c(C#N)c2)c2ccc(OCc3ccnc(NS(C)(=O)=O)n3)cc21 [Compound A157]
[1]
  IC50: 500 to 2000 nM

## CS(=O)(=O)Nc1nccc(COc2ccc3c(ccn3-c3cc(Cl)c(OCC(F)(F)F)c(C#N)c3)c2)n1 [Compound A70]
[1]
  IC50: 500 to 2000 nM

## CC(C)(c1ccc(OCc2ccnc(NS(C)(=O)=O)n2)cc1)c1cc(Cl)c(N2CCC(CO)CC2)c(C#N)c1 [Compound A90]
[1]
  IC50: 500 to 2000 nM

## CS(=O)(=O)Nc1ncc(COc2ccc3c(ccn3-c3cc(Cl)c(OCCCl)c(C#N)c3)c2)c(N)n1 [Compound A10]
[1]
  IC50: > 2000 nM

## CC1(NS(C)(=O)=O)CCN(Cc2ccc3c(ccn3-c3cc(Cl)c(OCCCl)c(C#N)c3)c2)CC1 [Compound A238]
[1]
  IC50: > 2000 nM

## CC(C)(c1ccc(-c2ccc3nc(NS(C)(=O)=O)nc(N4CCOCC4)c3c2)cc1)c1cc(Cl)c(OCCCl)c(C#N)c1 [Compound A196]
[1]
  IC50: 500 to 2000 nM

## CC(C)(c1ccc(OCc2cccc(S(N)(=O)=O)c2)cc1)c1cc(Cl)c(OCCCl)c(C#N)c1 [Compound A50]
[1]
  IC50: 500 to 2000 nM

## CS(=O)(=O)N[C@H]1CC[C@@H](Oc2ccc3c(ccn3-c3cc(Cl)c(OCCCl)c(C#N)c3)c2)C1 [Compound A226]
[1]
  IC50: 500 to 2000 nM

## CS(=O)(=O)N[C@H]1CC[C@H](Oc2ccc3c(ccn3-c3cc(Cl)c(OCCCl)c(C#N)c3)c2)CC1 [Compound A242]
[1]
  IC50: 500 to 2000 nM

## Cn1nc(NS(C)(=O)=O)cc1COc1ccc(C(C)(C)c2cc(Cl)c(OCCCl)c(C#N)c2)cc1 [Compound A93]
[1]
  IC50: 500 to 2000 nM

## CC(C)(c1ccc(OCc2cncc(NS(C)(=O)=O)c2)cc1)c1cc(Cl)c(OCCCl)c(C#N)c1 [Compound A49]
[1]
  IC50: 500 to 2000 nM

## CS(=O)(=O)N[C@@H]1CC[C@@H](Oc2ccc3c(ccn3-c3cc(Cl)c(OCCCl)c(C#N)c3)c2)C1 [Compound A207]
[1]
  IC50: 500 to 2000 nM

## CC(C)(c1ccc(OCc2ncc(NS(C)(=O)=O)nc2N)cc1)c1cc(Cl)c(OCCCl)c(C#N)c1 [Compound A43]
[1]
  IC50: < 500 nM

## CC(C)(c1ccc(OCC23CCC(NS(C)(=O)=O)(CC2)CC3)cc1)c1cc(Cl)c(OCCCl)c(C#N)c1 [Compound A273]
[1]
  IC50: 500 to 2000 nM

## CS(=O)(=O)Nc1nccc(COc2ccc3c(c2)CC[C@H]3c2cc(Cl)c(OCCCl)c(C#N)c2)n1 [A35(S)]
[1]
  IC50: 500 to 2000 nM

## CC(C)(c1ccc(OCc2ccnc(NS(C)(=O)=O)n2)cc1)c1cc(Cl)c(-c2ccc(Cl)cc2)c(C#N)c1 [Compound A2, N-(4-((4-(2-(2,4′-dichloro-6-cyano-[1,1′-biphenyl]-4-yl)propan-2-yl)phenoxy)methyl)pyrimidin-2-yl)methanesulfonamide]
[1]
  IC50: > 2000 nM

## CS(=O)(=O)Nc1nccc(COc2ccc(-n3ccc4c(C#N)c(OCCCl)c(C#N)cc43)cc2)n1 [Compound A75]
[1]
  IC50: > 2000 nM

## CC(C)(c1ccc(-c2cnc3c(c2)C(NS(C)(=O)=O)CCC3)cc1)c1cc(Cl)c(OCCCl)c(C#N)c1 (stereo not shown) [Compound A243]
[1]
  IC50: > 2000 nM

## CS(=O)(=O)Nc1nccc(COc2ccc3c(c2)CCN3c2cc(Cl)c(OCCCl)c(C#N)c2)n1 [Compound A30, N-(4-(((1-(3-chloro-4-(2-chloroethoxy)-5-cyanophenyl)indolin-5-yl)oxy)methyl)pyrimidin-2-yl)methanesulfonamide]
[1]
  IC50: > 2000 nM

## CS(=O)(=O)Nc1nccc(COc2ccc3c(ccn3-c3cc(Cl)c(OCC(Cl)(Cl)Cl)c(C#N)c3)c2)n1 [Compound A22]
[1]
  IC50: > 2000 nM
